Reference: patent publication US20250235501A1, “Methods and Compositions for Treating or Preventing Neurological Injury or Neurological Disorders” (University of Connecticut, priority 2024, published 2025)

Tests used:
[1] = test system: cultured cortical neurons; experiment: Mitochondrial function under OGD, Rh123 de-quenching assay; assay type: cell-based, mouse; conditions: WT neurons; 10 μM peptide overnight; 30 min OGD
Procedure: FIGS. 6F-6G show the effects of TAT-EE3 on mitochondrial function evaluated using R123 de-quenching assay. Cultured cortical from gM2KO mice, nM2KO mice and WT control littermates were incubated with 10 μM TAT-SC or TAT-EE3 for overnight before OGD exposure. […] External perfusion solution aCSF containing no Ca2+ (No Ca2+) was used as a control. WT neuron without OGD exposure was used as a control (WT control) to illustrate the rapid photo bleaching of Rh123. […] The accumulated numbers of neurons in each group for data analysis were from 3˜5 independent experiments using neurons isolated from 3 mice/group (***, p<0.001; ANOVA, Bonferroni's test; mean±SEM).
Mice pups at P0 were euthanized based on animal protocol. Whole brain was dissected out immediately and immersed in ice-cold Hank's Balanced Salt Solution (HBSS). […] Isolated cells were counted and plated on coverslips pre-coated with poly-L-lysine (Sigma-Aldrich, P4707) at a density about 500×10^3 cells/cm2 for OGD and H2O2 treatment, and 100×10^3 cells/cm2 for current recording. […]
Mitochondria function was evaluated using Rhodamine-123 dequenching as previously reported. […]
Fluorescence intensities at 509 nm with excitation at 488 nm was collected every 15 s for 30 min using CoolSNAP HQ2 (Photometrics) and data were analyzed using NIS-Elements (Nikon).

MCAO mice = experiment: Middle cerebral artery occlusion (MCAO) ischemic stroke model; assay type: in vivo, mouse
[2] = 100 nmol/kg ip 15 mins before MCAO, 24 hrs after MCAO, vs TAT-SC-treated mice
[3] = 1 h MCAO, administered every 12 h, day 1, day 3, and day 7
[4] = FIGS. 18C-18E, pre-MCAO administration i.p. 30 min before MCAO
[5] = post-MCAO treatment, injected right before reopening of the MCA, WT mice

TAT-EE3: membrane permeable disrupting peptide, sequence YGRKKRRQRRREEDTDSSEEMLALAEE (SEQ ID NO: 4)
mitochondrial membrane depolarization induced by OGD (Rh123 fluorescence) [1]: markedly inhibited
infarct volume (MCAO mice; [2]): significantly reduced
neurological behavior scores (MCAO mice; [2]): improved
ND scores, long-term MCAO (7 days) (MCAO mice; [3]): improved
latency to fall time (rotarod test), long-term MCAO (MCAO mice; [3]): inhibited the reduction
infarct volume (MCAO mice; [4]): reduced
neurological deficit (ND) score (MCAO mice; [4]): improved
ND score (MCAO mice; [5]): improved
infarct volume (MCAO mice; [5]): reduced
protective effects in nM2KO mice (MCAO mice; post-MCAO treatment, neuron-specific TRPM2 knockout mice): did not produce further protective effects
